Assay results as given in paper PMC10008561 (Nature Communications, 2023).
Where “and” joins values, the source holds several entries; their conditions need not be identical. Equal values may be shown once. Read-outs that look alike come from different tables or passages of the source.

What was measured:
[1] = molecular target: T1, human KOR (Gi1) (Homo sapiens, UniProt P41145); assay: cell-based
T1 construct: expressed in transfected cells; host or cells: HEK293T

[2] = molecular target: T2, human KOR (Gi2) (Homo sapiens, UniProt P41145); assay: cell-based; settings: HEK-293T
T2 construct: expressed in transfected cells; host or cells: HEK293T
T2 sequence (P41145 whole entry): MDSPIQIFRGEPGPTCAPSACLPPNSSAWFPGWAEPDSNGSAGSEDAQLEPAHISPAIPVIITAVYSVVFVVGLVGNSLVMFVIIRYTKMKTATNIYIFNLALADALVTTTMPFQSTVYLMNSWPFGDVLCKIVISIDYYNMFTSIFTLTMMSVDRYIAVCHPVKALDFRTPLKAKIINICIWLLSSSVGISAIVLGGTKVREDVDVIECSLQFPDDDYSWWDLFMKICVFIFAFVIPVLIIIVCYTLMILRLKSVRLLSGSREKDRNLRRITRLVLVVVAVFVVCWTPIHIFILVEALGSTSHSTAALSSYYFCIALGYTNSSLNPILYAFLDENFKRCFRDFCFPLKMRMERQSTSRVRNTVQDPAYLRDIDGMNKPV

[3] = molecular target: T3, human KOR (Gi3) (Homo sapiens, UniProt P41145); assay: cell-based; settings: HEK-293T
T3 construct: expressed in transfected cells; host or cells: HEK293T
T3 sequence (P41145 whole entry): as above

[4] = molecular target: T4, human KOR (GoA) (Homo sapiens, UniProt P41145); assay: cell-based; settings: HEK-293T
T4 construct: expressed in transfected cells; host or cells: HEK293T
T4 sequence (P41145 whole entry): as above

[5] = molecular target: T5, human KOR (GoB) (Homo sapiens, UniProt P41145); assay: cell-based; settings: HEK-293T
T5 construct: expressed in transfected cells; host or cells: HEK293T
T5 sequence (P41145 whole entry): as above

[6] = molecular target: T6, human KOR (Gz) (Homo sapiens, UniProt P41145); assay: cell-based; settings: HEK-293T
T6 construct: expressed in transfected cells; host or cells: HEK293T
T6 sequence (P41145 whole entry): as above

[7] = molecular target: T7, human KOR (Gustducin) (Homo sapiens, UniProt P41145); assay: cell-based
T7 construct: expressed in transfected cells; host or cells: HEK293T
T7 sequence (P41145 whole entry): as above

[8] = molecular target: T8, human KOR (β-arrestin 1) (Homo sapiens, UniProt P41145); assay: cell-based; settings: HEK-293T
T8 construct: expressed in transfected cells; host or cells: HEK293T
T8 sequence (P41145 whole entry): as above

[9] = molecular target: T9, human KOR (β-arrestin 2) (Homo sapiens, UniProt P41145); assay: cell-based; settings: HEK-293T
T9 construct: expressed in transfected cells; host or cells: HEK293T
T9 sequence (P41145 whole entry): as above

[10] = molecular target: T10, human KOR (Homo sapiens, UniProt P41145); assay: cell-based
T10 sequence (P41145 whole entry): as above

[11] = molecular target: T11, human KOR (Homo sapiens, UniProt P41145, Q115N); assay: cell-based; settings: HEK-293T
T11 construct: expressed in transfected cells; host or cells: HEK 293T (ATCC, CRL-3216)
T11 sequence (P41145 whole entry Q115N): as the sequence (P41145 whole entry) above, with Q115N counted along it

[12] = molecular target: T12, human KOR (Homo sapiens, UniProt P41145, W287A); assay: cell-based; settings: HEK-293T
T12 construct: expressed in transfected cells; host or cells: HEK 293T (ATCC, CRL-3216)
T12 sequence (P41145 whole entry W287A): as the sequence (P41145 whole entry) above, with W287A counted along it

[13] = molecular target: T10, human KOR; assay: cell-based; remark: listed apart in the source
[14] = molecular target: T11, human KOR; assay: cell-based; settings: HTLA
[15] = molecular target: T12, human KOR; assay: cell-based; settings: HTLA
[16] = tested on: KOR; assay type: cell-based, human
[17] = tested on: KOR; assay: Bias factor, Gz vs β-arrestin2 (BRET), U50,488 as reference; assay type: cell-based, human
[18] = molecular target: T10, human KOR; assay: cell-based; set-up: expressed in transfected cells; host or cells: HEK 293T (ATCC, CRL-3216); settings: HEK-293T
[19] = molecular target: T10, human KOR; assay: cell-based; set-up: expressed in transfected cells; host or cells: HEK 293T (ATCC, CRL-3216); settings: HTLA
[20] = molecular target: T13, KOR Q115N (Homo sapiens, UniProt P41145, Q115N); assay: cell-based; set-up: expressed in transfected cells; host or cells: HEK 293T (ATCC, CRL-3216); settings: read-out: cAMP response (Figure S4C), KOR Q115N, Log [Drug], replicate values
Target sequence in this assay (P41145 whole entry Q115N): as the sequence (P41145 whole entry) above, with Q115N counted along it

[21] = molecular target: T13, KOR Q115N; assay: cell-based; set-up: TEV cleavage site (C); tTA transcription factor (C); expressed in transfected cells; host or cells: HTLA cells; settings: read-out: Tango response (Figure S4C), KOR Q115N, Log [Drug], replicate values
Target sequence in this assay (P41145 whole entry Q115N): as the sequence (P41145 whole entry) above, with Q115N counted along it
Target sequence in this assay (P32121 whole entry partner): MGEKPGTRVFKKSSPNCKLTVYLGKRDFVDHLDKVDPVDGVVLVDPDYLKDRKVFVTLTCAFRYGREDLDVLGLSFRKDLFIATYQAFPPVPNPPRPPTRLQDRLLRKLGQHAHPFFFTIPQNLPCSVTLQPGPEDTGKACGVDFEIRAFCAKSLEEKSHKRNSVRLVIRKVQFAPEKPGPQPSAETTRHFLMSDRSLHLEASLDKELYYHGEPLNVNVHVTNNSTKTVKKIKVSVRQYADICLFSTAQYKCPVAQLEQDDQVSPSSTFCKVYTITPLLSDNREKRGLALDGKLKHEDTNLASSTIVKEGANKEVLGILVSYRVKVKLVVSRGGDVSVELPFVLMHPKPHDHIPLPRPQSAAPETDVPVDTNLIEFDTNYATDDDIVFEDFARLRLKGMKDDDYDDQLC

[22] = tested on: human KOR (Gustducin); settings: cited from earlier work
[23] = read-out: Gz (Figure 5A concentration-response, replicate values)
[24] = read-out: βArrestin1 (Figure 5A concentration-response, replicate values)
[25] = read-out: cAMP response (Figure S4C)
[26] = read-out: Tango response (Figure S4C)

T1 sequence (P41145 whole entry): as the sequence (P41145 whole entry) above

Compound: COC(=O)N1CCN(C(=O)Cc2ccc(Cl)c(Cl)c2)C2C(N3CCCC3)CCCC21 (centres unmarked) [WMS-X600]
- Emax% [1]: 101.3%
- Emax ([1]; HEK-293T): 84 ± 8%
- Emax [2]: 99.3%
- Emax [3]: 99.2%
- Emax [4]: 99.8%
- Emax [5]: 99.2%
- Emax [6]: 97.7%
- activation at 0.001 µM [6, 23]: 86.2%
- activation at 0.01 µM [6, 23]: 100%
- activation at 0.1 µM [6, 23]: 101%
- activation at 1 µM [6, 23]: 95.2%
- activation at 10 µM [6, 23]: 97.8%
- Emax% [7]: 94%
- Emax ([7]; HEK-293T): 93.6%
- Emax [8]: 93.8%
- activation at 0.01 µM [8, 24]: 33.5%
- activation at 1 µM [8, 24]: 86.2%
- activation at 10 µM [8, 24]: 91.8%
- Emax [9]: 102 ± 6%
- increase of potency for G protein signaling [10]: 10 fold
- loss of potency in G protein activation [10]: 82 fold
- Emax [11]: 103 ± 1%
- Emax [12]: 98 ± 5%
- increase of potency for arrestin signaling [13]: 5 fold
- loss of potency in arrestin recruitment [13]: 232 fold
- Emax [14]: 110 ± 6%
- Emax [15]: 108 ± 7%
- ΔΔLog τ/KA (95% confidence interval) [16]: 1 (0.81-1.19)
- bias factor towards arrestin pathway [17]: 8.6
- Emax [18]: 95 ± 3%
- activation at 31.62 pM [18, 25]: 34.2%
- activation at 0.0001 µM [18, 25]: 56.7%
- activation at 0.001 µM [18, 25]: 78.9%
- activation at 0.01 µM [18, 25]: 101%
- activation at 0.1 µM [18, 25]: 103%
- activation at 1 µM [18, 25]: 91.1%
- activation at […] [18, 25]: 68.9% and 97.5% and 102% and 90.6%
- Emax [19]: 96 ± 5%
- activation at 0.001 µM [19, 26]: 78.7%
- activation at 0.1 µM [19, 26]: 116%
- activation at 1 µM [19, 26]: 112%
- activation at 10 µM [19, 26]: 123%
- activation at […] [19, 26]: 43.5% and 72.6% and 125%
- activation at 1 µM ([20]; M -6): 99.1%
- activation at […] ([20]; M -6.5): 107%
- activation at 0.1 µM ([20]; M -7): 105%
- activation at […] ([20]; M -7.5): 104%
- activation at 0.01 µM ([20]; M -8): 103%
- activation at […] ([20]; M -8.5): 100%
- activation at 0.001 µM ([20]; M -9): 97.8%
- activation at […] ([20]; M -9.5): 101%
- activation at 0.0001 µM ([20]; M -10): 92.8%
- activation at 31.62 pM ([20]; M -10.5): 81.3%
- activation at 10 pM ([20]; M -11): 56.3%
- activation at 3.162 pM ([20]; M -11.5): 33.3%
- activation at 10 µM ([21]; M -5): 120%
- activation at […] ([21]; M -5.5): 124%
- activation at 1 µM ([21]; M -6): 123%
- activation at […] ([21]; M -6.5): 107%
- activation at 0.1 µM ([21]; M -7): 112%
- activation at 0.01 µM ([21]; M -8): 116%
- activation at […] ([21]; M -9.5): 72.6%
- activation at 0.0001 µM ([21]; M -10): 78.7%
- activation at 31.62 pM ([21]; M -10.5): 43.5%

Compound: dynorphin A 1–13
- activity at Gustducin [22]: nearly inactive
